Data set [1] addresses T1, Prostaglandin G/H synthase 1 (Ovis aries, UniProt P05979).
T1 sequence (P05979 whole entry): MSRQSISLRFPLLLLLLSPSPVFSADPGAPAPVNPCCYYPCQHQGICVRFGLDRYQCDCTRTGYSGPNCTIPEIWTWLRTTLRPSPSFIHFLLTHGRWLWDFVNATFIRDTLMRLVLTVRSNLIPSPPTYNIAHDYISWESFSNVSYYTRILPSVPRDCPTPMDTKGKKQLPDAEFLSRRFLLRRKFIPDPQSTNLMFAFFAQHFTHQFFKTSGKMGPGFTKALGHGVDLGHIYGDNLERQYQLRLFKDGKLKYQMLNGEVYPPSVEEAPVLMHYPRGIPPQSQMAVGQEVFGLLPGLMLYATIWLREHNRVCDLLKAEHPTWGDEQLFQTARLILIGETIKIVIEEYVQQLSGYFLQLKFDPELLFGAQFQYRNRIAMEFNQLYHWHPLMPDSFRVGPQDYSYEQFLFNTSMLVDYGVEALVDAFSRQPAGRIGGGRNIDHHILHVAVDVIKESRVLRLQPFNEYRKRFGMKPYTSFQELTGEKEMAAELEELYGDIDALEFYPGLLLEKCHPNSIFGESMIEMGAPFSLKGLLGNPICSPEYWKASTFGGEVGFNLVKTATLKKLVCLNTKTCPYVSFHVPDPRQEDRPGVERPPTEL
As to the kind of experiment: Tested for inhibitory activity against Prostaglandin G/H synthase 1 from ovine.

The test system of data set [2] is Rattus norvegicus. As to the kind of experiment: In vivo effective dose required for antiinflammatory activity in rat adjuvant arthritis model. The format is functional.
In data set [3] the test system is Rattus norvegicus. In words: The compound was tested for maximum blood level reached in rats at 15.9 uM/Kg after intravenous administration. Set-up: dose 15.9 uM/Kg, route intravenous. It is filed as ADME, organism-based. To be noted: in vivo, 15.9 µmol/kg.
Data set [4] has as its system Rattus norvegicus. In words: The compound was tested for maximum blood level reached in rats at 15.9 uM/Kg after peroral administration. The format is ADME, organism-based. Details: dose 15.9 uM/Kg, route oral. To be noted: in vivo, po.

The IC50 is the concentration that inhibits the measured activity by half. Read a low IC50 as inhibition by little substance. `CS(=O)(=O)c1ccc(-c2[nH]c(SC#N)cc2-c2ccc(F)cc2)cc1` yielded an IC50 in data set [1] of 219 µM. Also, the ED50 in the data set with Rattus norvegicus [2] was 10.47 µM.

In the case of `CS(=O)(=O)c1ccc(-c2[nH]c(Br)cc2-c2ccc(F)cc2)cc1`, the Cmax stood at 2 uM l-1 in the data set on Rattus norvegicus [3] and 3 uM l-1 with Rattus norvegicus [4] (15.9 µmol/kg). This compound also showed an IC50 in data set [1] of 132 µM. Also, in the data set with Rattus norvegicus [2], the ED50 is 2.66 µM.

Turning to `CS(=O)(=O)c1ccc(-c2[nH]c(Br)c(Cl)c2-c2ccc(F)cc2)cc1`, the ED50 in the data set on Rattus norvegicus [2] was 9.98 µM.

Turning to `CC(=O)n1c(Br)cc(-c2ccc(F)cc2)c1-c1ccc(S(C)(=O)=O)cc1`, the ED50 with Rattus norvegicus [2] was 82.95 µM.

Regarding `CS(=O)(=O)c1ccc(-c2[nH]c(I)c(I)c2-c2ccc(F)cc2)cc1`, in data set [1], the IC50 came out at 127 µM. Moreover, the ED50 in the data set with Rattus norvegicus [2] was 72.82 µM.

As for `CS(=O)(=O)c1ccc(-c2[nH]c(I)cc2-c2ccc(F)cc2)cc1`, the IC50 in data set [1] is > 300 µM. Also, the ED50 in the data set on Rattus norvegicus [2] is 49.86 µM.

Take `Cn1c(Br)c(Br)c(-c2ccc(F)cc2)c1-c1ccc(S(C)(=O)=O)cc1`: in data set [1], the IC50 amounted to 767 µM. The ED50 with Rattus norvegicus [2] is 8.54 µM.

`Cn1c(Cl)c(Cl)c(-c2ccc(F)cc2)c1-c1ccc(S(C)(=O)=O)cc1` gave an IC50 in data set [1] of 650 µM. Besides, in the data set with Rattus norvegicus [2], the ED50 is 12.55 µM.

In data set [1], `CS(=O)(=O)c1ccc(-c2[nH]c(C(=O)C(F)(F)F)cc2-c2ccc(F)cc2)cc1` registered an IC50 of 580 µM. Also, in the data set with Rattus norvegicus [2], the ED50 amounted to 47.16 µM.

`Cn1ccc(-c2ccc(F)cc2)c1-c1ccc(S(C)(=O)=O)cc1`: the IC50 in data set [1] was > 300 µM. Besides, the ED50 in the data set with Rattus norvegicus [2] is >303 µM.

Consider `Cn1c(Br)cc(-c2ccc(F)cc2)c1-c1ccc(S(C)(=O)=O)cc1`, for which the Cmax was 2.9 uM l-1 in the data set on Rattus norvegicus [3] and 1.5 uM l-1 with Rattus norvegicus [4] (15.9 µmol/kg). Further, half-maximal inhibition in data set [1] (IC50) was put at 516 µM. In addition, the ED50 with Rattus norvegicus [2] worked out at 4.16 µM.

Take `CS(=O)(=O)c1ccc(-c2[nH]c(S(C)(=O)=O)cc2-c2ccc(F)cc2)cc1`: the IC50 in data set [1] was > 300 µM. Moreover, in the data set with Rattus norvegicus [2], the ED50 is 93.02 µM.

`CS(=O)(=O)c1ccc(-c2[nH]c(Cl)c(Cl)c2-c2ccc(F)cc2)cc1` showed an IC50 in data set [1] of 20 µM. In addition, the ED50 in the data set with Rattus norvegicus [2] was 3.9 µM.

Regarding `CS(=O)(=O)c1ccc(-c2[nH]c(Cl)c(Br)c2-c2ccc(F)cc2)cc1`, in data set [1], the IC50 came out at 44 µM. For the same compound, the ED50 in the data set on Rattus norvegicus [2] came out at 7.93 µM.

For the compound `CC(C)(C)OC(=O)n1c(Br)cc(-c2ccc(F)cc2)c1-c1ccc(S(C)(=O)=O)cc1`, in data set [1], the IC50 was > 300 µM. In addition, the ED50 with Rattus norvegicus [2] was 32 µM.

Take `CS(=O)(=O)c1ccc(-c2[nH]ccc2-c2ccc(F)cc2)cc1`: the Cmax in the data set on Rattus norvegicus [4] is < 0.1 uM l-1. For the same compound, the IC50 in data set [1] turned out to be 373 µM. The ED50 with Rattus norvegicus [2] is >317 µM.

With `CS(=O)(=O)c1ccc(-c2[nH]c([N+](=O)[O-])cc2-c2ccc(F)cc2)cc1`, in the data set with Rattus norvegicus [2], the ED50 is 24.97 µM.

On to `CS(=O)(=O)c1ccc(-c2[nH]c(Cl)cc2-c2ccc(F)cc2)cc1`, for which the Cmax is recorded as 1.4 uM l-1 in the data set on Rattus norvegicus [3] and 2.3 uM l-1 in the data set on Rattus norvegicus [4] (15.9 µmol/kg). In addition, the IC50 in data set [1] is 94 µM.

On to `CSc1cc(-c2ccc(F)cc2)c(-c2ccc(S(C)(=O)=O)cc2)[nH]1`, for which the IC50 in data set [1] stood at 36 µM. Besides, the ED50 in the data set on Rattus norvegicus [2] worked out at 4.89 µM.

Consider `CS(=O)(=O)c1ccc(-c2[nH]c(C#N)cc2-c2ccc(F)cc2)cc1`, for which the results for the Cmax in the data set on Rattus norvegicus [3] and in the data set with Rattus norvegicus [4] (15.9 µmol/kg) were 4.1 uM l-1 and 2.9 uM l-1, respectively. Moreover, in the data set on Rattus norvegicus [2], the ED50 was determined as 3.82 µM.

As to `CC(=O)Oc1ccccc1C(=O)O` [ASPIRIN], the ED50 in the data set on Rattus norvegicus [2] was 1942.7 µM.

`CC(C)Cc1ccc(C(C)C(=O)O)cc1` (stereo not given) [IBUPROFEN]: in the data set with Rattus norvegicus [2], the ED50 turned out to be 484.8 µM.

Consider `COc1ccc2c(c1)c(CC(=O)O)c(C)n2C(=O)c1ccc(Cl)cc1` [INDOMETHACIN], for which, in the data set on Rattus norvegicus [2], the ED50 amounted to 0.84 µM.

For the compound `CCCCC1C(=O)N(c2ccccc2)N(c2ccccc2)C1=O` [PHENYLBUTAZONE], 384 µM corresponded to half-maximal inhibition in data set [1] (IC50). Besides, the ED50 in the data set with Rattus norvegicus [2] was determined as 32.4 µM.

`CN1C(C(=O)Nc2ccccn2)=C(O)c2ccccc2S1(=O)=O` [PIROXICAM]: the ED50 in the data set on Rattus norvegicus [2] amounted to 1.3 µM.

These data come from ChEMBL document CHEMBL1128445, “Antiinflammatory 4,5-diarylpyrroles. 2. Activity as a function of cyclooxygenase-2 inhibition” (J Med Chem, 1995).
